Results on 30 molecules are retold here after PubChem BioAssay (NCI).

Values joined by “and” are separate entries in the source; they are usually repeats but may differ in a detail not shown here. Identical values can stand only once.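 1) Cells in 96-well plates. 2) Compound, 48 h, 5 concentrations. 3) Linear interpolation between surrounding doses. 4) Unreached endpoint = highest concentration. Abbreviation: GI50, concentration required for 50% inhibition of growth. TGI marks complete inhibition of growth.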

Test in all cases: DTP human tumour cell line panel, 48 h
Assay [1] has as its system HT29 colon.
Assay [2] relates to NCI-H23 lung.
Assay [3] relates to OVCAR-3 ovarian.
Assay [4] relates to HS 578T breast.
The test system of assay [5] is UACC-257 melanoma.
In assay [6] the test system is UACC-62 melanoma.
Assay [7] has as its system OVCAR-8 ovarian.
Assay [8] relates to K-562 leukemia.
Assay [9] deals with NCI-H522 lung.
Assay [10] relates to SF-268 CNS.

In general, TGI refers to the concentration giving total growth inhibition. In the case of `COC(=O)C1=C(C(=O)OC)SC2(S1)C(C(=O)OC)=C(C(=O)OC)Sc1c2ssc1=Nc1ccc(Cl)cc1`, the TGI is 1.78 µM in assay [1]; 4.13 µM in assay [2]; 2.71 µM in assay [3]; greater than 100 µM in [4]; 2.3 µM in [5]; 2.42 µM in [6]. Further, the TGI in assay [7] turned out to be 3.25 µM; in [8], 5.78 µM.
For the molecule `O=C1C=CC(=O)c2c1ccc1c3ccccc3n(-c3ccccc3[N+](=O)[O-])c21`, the TGI is 2.87 µM in [9]; greater than 74.1 µM in assay [1]; 19.4 µM in assay [2]; 6.82 µM in assay [10]; 36.4 µM in assay [4]; 13.1 µM in [5]. The values for the TGI in assay [6] and in [8] were 10.2 µM and greater than 100 µM, respectively.
As to `O=C(c1ccc(Cl)cc1)N(C(=S)OCc1ccccn1)c1ccccc1`, the TGI in assay [1], in assay [2], in assay [10], in [3], in [4] and in assay [5] was greater than 100 µM in each case. Further, the TGI in assay [6], in assay [7] and in [8] was greater than 100 µM each time.
With `c1ccc2c(c1)CCc1[nH]c3c(c1-2)-c1ccccc1CC3`, the TGI in [9], in assay [1], in assay [2], in assay [10], in assay [3] and in assay [4] was greater than 100 µM in each case. For the same molecule, the TGI in [5], in assay [6], in assay [7] and in [8] was greater than 100 µM in each case.
Regarding `COc1ccc(C(=O)/C=C/c2ccc(OCCSCCCCCCCCCCSCCOc3ccc(/C=C/C(=O)c4ccc(OC)c(OC)c4)cc3)cc2)cc1OC`, the TGI in assay [9], in assay [1], in [2], in [10], in assay [4] and in assay [5] was greater than 100 µM throughout. Also, the concentration for total growth inhibition (TGI) in assay [6], in [7] and in assay [8] was greater than 100 µM throughout.
Turning to `COC1(O)c2cccc(Cl)c2C(=O)N1C1(C(N)=O)CCCCC1` (stereo not drawn), the TGI in assay [9] is greater than 100 µM; in assay [1], greater than 58 µM; in assay [2], greater than 53.1 µM; in [10], greater than 100 µM; in assay [3] it was greater than 100 µM; in [5], greater than 100 µM. Further, the TGI in assay [6], in assay [7] and in [8] was greater than 100 µM in each case.
Turning to `CSc1nc2c(ncn2C2OCC(O)C(O)C2O)c(=O)n1C` (stereo not drawn), the total growth inhibition concentration (TGI) in assay [9], in assay [1], in [2], in assay [10], in [3] and in assay [5] was greater than 100 µM throughout. The TGI in assay [6], in [7] and in assay [8] was greater than 100 µM each time.
`CC1CCC2(CC1)NC1=C(CC(C)CC1)C1=C2CC(C)CC1` (stereo not drawn): the TGI in assay [9] was 40 µM; in assay [1] it was 46.5 µM; in assay [2], 59 µM; in [3], 37.4 µM; in assay [4], 63.2 µM; in assay [5] it was 72.9 µM. The TGI in assay [7] amounted to 65.6 µM; in assay [8], 42.9 µM.
Take `NN1C(=O)C(CCO)S/C1=N/N=C1/SC(CCO)C(=O)N1N` (stereo not drawn): the TGI in [9], in assay [1], in assay [2], in assay [10], in assay [3] and in assay [5] was greater than 100 µM in each case. Besides, the TGI in assay [6], in assay [7] and in assay [8] was greater than 100 µM each time.
As to `COc1cc(C2C(Cl)C(=O)N2NC(=O)c2ccc(N)cc2)cc(Br)c1O` (stereo not drawn), the TGI was found to be 3.4 µM in [9]; 41.9 µM in assay [1]; 35.1 µM in [2]; 19.7 µM in assay [10]; 20.8 µM in assay [3]; 35.9 µM in [5]. The TGI was 30.4 µM in assay [6], greater than 100 µM in assay [7] and 48.7 µM in assay [8].
`COc1ccccc1/C=C1\NC(=S)N(/C=C2\C(=O)Oc3ccccc3C2=O)C1=O`: the TGI in assay [9], in assay [1], in assay [2], in assay [10], in [3] and in assay [4] was greater than 100 µM throughout. Besides, the TGI in assay [5], in assay [6] and in assay [7] was greater than 100 µM each time.
Turning to `CC(C)(CCCCC(C)(C)[N+](C)(C)C)[N+](C)(C)C`, the TGI in assay [9], in assay [1], in assay [10], in [4], in [5] and in assay [7] was greater than 100 µM throughout. The molecule further displayed a TGI in [8] greater than 100 µM.
Regarding `CCOC1Oc2ccccc2-c2nc(SC)ncc21` (stereo not drawn), the TGI in assay [9], in assay [1], in assay [2], in assay [10], in [3] and in assay [4] was greater than 100 µM each time. For the same molecule, the TGI in assay [5], in assay [6] and in [7] was greater than 100 µM throughout.
For `OCCN1CCN2C=C(C3CCCC4N(CCO)CCN34)CCC21` (stereo not drawn), the TGI in assay [9] was greater than 70 µM; in assay [1], greater than 100 µM; in assay [2], greater than 100 µM; in [10], greater than 100 µM; in assay [3] it was greater than 100 µM; in assay [5], greater than 100 µM. Moreover, the values for the TGI in assay [6], in assay [7] and in [8] were greater than 93.9 µM, greater than 100 µM and greater than 61.5 µM, respectively.
As for `Clc1ccc(-c2c(C3=NCCCN3)nnn2-c2ccccc2)cc1`, the total growth inhibition concentration (TGI) in [9], in [1], in [2], in assay [10], in [3] and in assay [5] was greater than 100 µM in each case. The TGI in assay [6], in [7] and in assay [8] was greater than 100 µM throughout.
As usually defined, the GI50 is the concentration giving 50% growth inhibition. Take `CN1CCN(c2ccc3nc(-c4ccc5nc(-c6ccc(O)cc6)[nH]c5c4)[nH]c3c2)CC1`: the GI50 in assay [9] is 4.47 µM and 3.05 µM; in [10], 28.6 µM and 45.4 µM; in [3] it was 13.5 µM and 59.5 µM and 10.1 µM; in assay [6], 14 µM and 86.9 µM and 28 µM; in assay [7] it was 173 µM; in assay [8], 12.7 µM and 6.04 µM. Further, the TGI in assay [9] is 65.5 µM and 202 µM; in assay [1], 295 µM; in assay [2], 531 µM; in assay [10] it was 717 µM; in [3] it was 43.1 µM; in assay [5], 188 µM. In addition, the TGI in assay [6] is 118 µM; in assay [7] it was 539 µM; in assay [8], 470 µM.
For the molecule `O=c1c2cc(Cl)cc(Cl)c2oc2nc3n(c(=O)c12)CCCS3`, the TGI in assay [9] is 81.6 µM; in [2], greater than 100 µM; in assay [10], greater than 100 µM; in [3], greater than 100 µM; in [4], greater than 100 µM; in assay [5] it was greater than 100 µM. Further, the TGI in assay [6] and in assay [8] was greater than 100 µM in each case.
On to `O=C(O)c1ccc(C2SCc3nc4ccccc4n32)cc1` (stereo not drawn), for which the TGI in assay [9], in [1], in assay [2], in assay [10], in assay [3] and in assay [4] was greater than 100 µM in each case. Moreover, the TGI in assay [5], in assay [7] and in assay [8] was greater than 100 µM in each case.
`Ic1cc2c(cc1C1SCCCS1)OCO2`: the TGI in [9], in [1], in [2], in [10], in assay [3] and in assay [5] was greater than 100 µM in each case. The TGI in [6], in assay [7] and in [8] was greater than 100 µM throughout.
On to `COc1ccc(C2CC3(c4ccccc4)ON=C(c4ccccc4)N3c3ccccc3S2)cc1` (stereo not drawn), for which the TGI in assay [9], in assay [1], in assay [2], in assay [10], in assay [3] and in [4] was greater than 100 µM in each case. Also, the TGI in assay [5], in [6] and in assay [7] was greater than 100 µM each time.
`O=c1cn[nH]c(=S)n1/N=C/c1c[nH]c2ccccc12`: the TGI in assay [9], in [1], in assay [10], in assay [3], in [4] and in assay [5] was greater than 100 µM throughout. The TGI in assay [6] is greater than 100 µM; in assay [7], 93.9 µM; in assay [8] it was greater than 100 µM.
For the molecule `CSc1ccc(/C=C2\N=C(c3ccccc3)N(c3nc4cc(C)c(C)cc4s3)C2=O)cc1`, the TGI in [1] is 47.9 µM; in [10] it was greater than 100 µM; in assay [3], 77.4 µM; in assay [4], 92.1 µM; in assay [5], greater than 100 µM; in [6] it was greater than 100 µM. Moreover, the TGI was 43.9 µM in assay [7] and greater than 100 µM in assay [8].
For `COC(=O)C1=C(C)C=C(N2CCOCC2)C(C(=O)OC)C1c1ccccc1` (stereo not drawn), the TGI in assay [9], in [1], in assay [2], in [10], in [3] and in assay [4] was greater than 10 µM in each case. The TGI in assay [5], in assay [7] and in assay [8] was greater than 10 µM each time.
Consider `C1CC[C@H]2SSC3CCCC[C@H]3SSC2C1` (stereo partly drawn), for which the TGI in assay [9], in assay [1], in assay [2], in [10], in assay [3] and in [5] was greater than 100 µM each time. For the same molecule, the TGI in [6], in assay [7] and in assay [8] was greater than 100 µM in each case.
With `CN1CN(c2ccccc2)C2(CCN(CCC3COc4ccccc4O3)CC2)C1=O` (stereo not drawn), the TGI in [9] was 33.4 µM; in assay [1], 19.6 µM; in [2] it was greater than 100 µM; in assay [10], greater than 100 µM; in [3], 48.7 µM; in assay [5], 31 µM. Besides, the TGI in assay [6] is 91.6 µM; in [7], greater than 100 µM; in assay [8] it was 44.9 µM.
On to `COc1cc2c(cc1OC)C(=O)/C(=C/c1cc(OC)c(OC)c(OC)c1)C2`, for which the TGI was 51 µM in assay [9]; greater than 100 µM in assay [1]; greater than 100 µM in assay [2]; greater than 100 µM in [3]; greater than 100 µM in assay [4]; greater than 100 µM in assay [6]. Besides, the TGI in [7] and in [8] was greater than 100 µM each time.
For `C=C[C@]1(C)CCC2=C(CCC3C2(C)CCC[C@@]3(C)COC(C)=O)C1` (stereo partly drawn), the TGI in assay [9] was determined as 28.7 µM; in assay [1], 33.9 µM; in assay [2], 43.3 µM; in [10] it was 40 µM; in [3], 32.1 µM; in [5] it was 53 µM. The total growth inhibition concentration (TGI) in [6] is 45.8 µM; in [7], 34.6 µM; in assay [8], 33.5 µM.
As for `O=C1CSC(c2c[nH]c3ccccc23)N1c1ccccc1[N+](=O)[O-]` (stereo not drawn), the TGI in assay [9], in assay [1], in assay [2], in [10], in assay [3] and in [5] was greater than 100 µM throughout. For the same molecule, the TGI in assay [6], in assay [7] and in [8] was greater than 100 µM in each case.
On to `Cc1nnc(N)nc1/C=C/c1c(O)ccc2ccccc12`, for which the TGI in assay [1] is 87.7 µM; in [2], greater than 100 µM; in assay [10], 96.9 µM; in assay [4], 85 µM; in [5], greater than 100 µM; in [6] it was 85 µM. Moreover, the TGI in [7] and in [8] was greater than 100 µM each time.
Consider `CCCCCC/C=C1\CCC(CN2CCOCC2)C1=O` (stereo not drawn), for which the total growth inhibition concentration (TGI) came to 19.4 µM in [9]; 34.2 µM in assay [1]; 31.7 µM in assay [2]; 43 µM in assay [10]; 32.7 µM in assay [3]; 29.3 µM in assay [5]. Moreover, the TGI in assay [6] was 32.1 µM; in assay [7], 32.7 µM; in assay [8] it was 16.4 µM.
